From US20260000668A1 (priority 2021, published 2026)
Converted amounts (≈) assume the structure as drawn. Read-outs that look alike come from different tables or passages of the source.

Assays:
[1] = tested on: SARS-Related Coronavirus 2 Isolate USA-WA1/2020; format: cell-based, SARS-COV-2; details: treatment 2 hours pre-infection; for Mean Log10 Reduction: Vero E6, MOI=0.1, 2 days, vs untreated control

Compound	Mean Log10 Reduction ([1]; 1 μM) [Log10]	Mean Log10 Reduction ([1]; 2 μM) [Log10]	Mean Log10 Reduction ([1]; 4 μM) [Log10]	Mean Log10 Reduction ([1]; 8 μM) [Log10]	antiviral activity against SARS-COV-2 ([1]; 1-8 μM, Vero E6)	solubility (physchem; organic solvent or mixture) [mg/mL]	solubility (physchem; water) [mg/mL]	Mean Log10 Reduction ([1]; 10 μM) [Log10]
CN1CCN(CCCc2ccc(C(c3ccccc3)C34CC5CC(CC(C5)C3)C4)cc2)CC1 (stereo not drawn) [AV1066, 1-Methyl-4-[3-[4-(phenyltricyclo[3.3.1.1^3,7]dec-1-ylmethyl)phenyl]propyl]piperazine]	0.00	0.10	1.33	4.89	exhibited antiviral activity against SARS-COV-2 in a dose dependent manner	21 (≈ 47.4 mM)	4 (≈ 9.04 mM)	
CCC(CC)COC(=O)[C@H](C)N[P@](=O)(OC[C@H]1O[C@@](C#N)(c2ccc3c(N)ncnn23)[C@H](O)[C@@H]1O)Oc1ccccc1 [Remdesivir, reference compound]						100 (≈ 166 mM)		5.72
